Assays:
[1] = tested on: bone marrow-derived macrophages (BMDMs); experiment: In vitro Aβ phagocytosis assay (CypHer5E-tagged Aβ oligomers, flow cytometry); format: cell-based, mouse; conditions: SYK-deficient (Syk^fl/fl LysM^Cre) BMDMs; 10 μM Tideglusib 1 hour before 10 μM CypHer5E-tagged Aβ oligomers; read 24 hours later; vs vehicle
Experimental: Monomerization of Aβ (1-42) (641-15, California peptide) was achieved using a previously published protocol (Stine et al., 2011), using hexafluoroisopropanol (HFIP) (52517, Sigma-Aldrich). 5 mM monomeric Aβ samples were incubated for 24 hours at 4° C. in F12 media to make a 200 μM stock of oligomeric Aβ. Samples were then incubated with CypHer5E-NHS ester (PA15401, […]) diluted in 0.1 M sodium bicarbonate for 30 minutes covered and at room temperature. Following incubation, Biospin columns (7326227, Bio-Rad) were used to […] unbound dye. CypHer5E-tagged Aβ oligomers were stored at 4° C. prior to BMDM treatment. Bone marrow-derived macrophages (BMDMs) were isolated from the hindlimbs of WT and Syk^fl/fl LysM^Cre mice. Marrow-containing bones were sprayed with 70% ethanol before being placed in IMDM (Thermo Fisher, 12440-053) containing penicillin/streptomycin (P/S) (Thermo Fisher, 15140163). A 25-gauge needle was used to flush marrow from the bones using 20 ml of IMDM containing P/S. An 18-gauge needle was then used to triturate flushed bone marrow 5 times to make a single-cell suspension. Samples were spun down at 1500 rpm for 5 minutes at 4° C. […] 24 hours post Aβ treatment, BMDMs were then collected, and flow cytometry was used to assess CypHer5E fluorescence. […]

5xFAD mice = experiment: Intrahippocampal injection, Aβ load in hippocampus by immunofluorescence; format: in vivo; conditions: 2 μg pustulan intrahippocampal vs vehicle-injected hemisphere of the same mouse, 7 days post injection
Experimental: Floating brains sectioned stored in PBS+0.05% sodium azide were blocked with 2% donkey serum, 1% bovine serum albumin, 0.1% triton, 0.05% tween in PBS for 1 hour at room temperature before applying the primary antibody master mix diluted in this block overnight at 4° C. Samples were stained with anti-AB (D54D2, Cell Signaling, 1:300; or 6e10, BioLegend, 1:1000) to label plaques. To study microglial morphology and numbers, sections were stained with Iba1 (ab5076, Abcam, 1:300). To further characterize microglia, we labeled with Ki67-EF660 (SoIA15, Thermo Fisher, 1:100), anti-Clec7a (R1-8g7, Invivogen, 1:30), Tmem119 (ab209064, Abcam, 1:300), and anti-CD68 (FA-11, BioRad, 1:1000). […] Quantification of images were performed using Fiji software or Imaris software (9.5.1).
5xFAD and 5xFAD Syk^ΔMG mice were anesthetized before receiving a bilateral hippocampal injection of 2 μl of vehicle or 2 μg pustulan into the right and left hemisphere of the hippocampus (at +2 mm lateral, −2 mm posterior, and −2 mm ventral relative to the intersection of the coronal and sagittal suture (bregma) at a rate of 200 nl/min) using a stereotaxic frame (51730U, Stoelting) and nanoliter injector (NL2010MC2T, World Precision Instruments). […] Images were analyzed using Fiji software and Imaris software (9.5.1).

Compound | Aβ phagocytosis (CypHer5E fluorescence, percent CypHer5E+ CD11b^hi F4/80^hi cells) [1] | Aβ load in injected hippocampal hemisphere (D54D2 immunofluorescence) (5xFAD mice)
O=c1sn(-c2cccc3ccccc23)c(=O)n1Cc1ccccc1 [Tideglusib] | significantly increased Aβ phagocytosis | 
pustulan |  | decreased Aβ load

Source: patent US20260097056A1, “SYK ACTIVATORS AND INHIBITORS IN NEURODEGENERATIVE DISEASES” (University of Virginia Patent Foundation, priority 2022, published 2026)
